Measurements as given in patent US20040073958A1, “Transgenic animal having drug metabolism enzyme gene and utilization thereof” (priority 2001, published 2004).
Values joined by “and” are separate entries in the source; they are usually repeats but may differ in a detail not shown here. Equal values may be shown once.

Columns and labels:
rats and Rhesus monkeys = conditions: cited from earlier work; for teratogenicity in rats as compared with Rhesus monkeys: administered to rats at corresponding generation stages
36p Tg mice = experiment: Teratogenicity and fetal toxicity effects of thalidomide in 36p Tg mouse; conditions: for Details of Malformation: number of fetuses in brackets
Procedure: Frozen eggs of the transgenic mouse were prepared in accordance with “Example 4: Production of fertilized egg,” and fertilized eggs of the transgenic mouse were cryopreserved. The frozen fertilized eggs were melted, and 20 eggs were respectively transplanted into the oviducts of pseudopregnant female mice of the ICR lineage, and implanted. On the 9th day of gestation, thalidomide was administered into the maternal peritoneal cavity. The effect of thalidomide was tested at the dosage of: 100 mg/kg, and 200 mg/kg. A mixed solution of Tween 20 and physiological saline (1:3) was used as a vehicle. On the day before the delivery, which is the 19th day of gestation, the maternal body was subjected to laparotomy to observe the conditions inside the womb and the presence of teratogenicity and fetal toxicity in the generated and grown fetus. Also, tissues were collected from the fetuses generated and grown in the womb, or vestige of fetal matter in the womb, DNA was extracted therefrom, and the genotype was assayed by PCR The results are summarized in Table 4.

rat = conditions: early test using a rat; cited from earlier work
rabbit = conditions: administration of cyclooxygenase inhibitor; cited from earlier work
Salmonella TA100 = conditions: cited from earlier work

For `O=c1[nH]cc(F)c(=O)[nH]1` [5-fluorouracil], the “teratogenicity in rats as compared with Rhesus monkeys” value (rats and Rhesus monkeys) is given as “teratogenicity was observed at a lower dose”.

With `O=C1CCC(N2C(=O)c3ccccc3C2=O)C(=O)N1` (centres unmarked) [Thalidomide, thalidomide] the “Implants Total” value (36p Tg mice; 100 mg/kg i.p. day 9 of gestation, laparotomy day 19, single dam) was 15 and 14, the “Implants Total” value (36p Tg mice; 100 mg/kg, Total of 2 dams) was 29 and the Implants/dam (36p Tg mice; 100 mg/kg, Total of 2 dams) was 14.5. For the same molecule, the Live fetuses/dam (36p Tg mice; 100 mg/kg, Total of 2 dams) was 1.5, the “Malformations total (%)” value (36p Tg mice; 100 mg/kg, Total of 2 dams) was 33.3% and the “Malformations/Tg (%)” value (36p Tg mice; 100 mg/kg, Total of 2 dams) was 100.0%. For the same molecule, the “Malformations/nTg (%)” value (36p Tg mice; 100 mg/kg, Total of 2 dams) was 0.0%, the “Resorptions (%)” value (36p Tg mice; 100 mg/kg, Total of 2 dams) was 89.7% and the “Tg fetuses (%)” value (36p Tg mice; 100 mg/kg, Total of 2 dams) was 33.3%. For the same molecule, the “Tg/Malformations (%)” value (36p Tg mice; 100 mg/kg, Total of 2 dams) was 100.0%, the “nTg fetuses (%)” value (36p Tg mice; 100 mg/kg, Total of 2 dams) was 66.7% and the “Details of Malformation” value (36p Tg mice; 100 mg/kg) was 100 mg/kg: umbilical hernia (1). The “Malformations/Tg (%)” value (36p Tg mice; 100 mg/kg, single dam) was 100.0%, the “Malformations/nTg (%)” value (36p Tg mice; 100 mg/kg, single dam) was 0.0% and the “Resorptions (%)” value (36p Tg mice; 100 mg/kg, single dam) was 93.3% and 85.7%. For the same molecule, the “Tg/Malformations (%)” value (36p Tg mice; 100 mg/kg, single dam) was 100.0%, the “Implants Total” value (36p Tg mice; 200 mg/kg i.p. day 9 of gestation, laparotomy day 19, single dam) was 8 and 16 and the “Implants Total” value (36p Tg mice; 200 mg/kg, Total of 2 dams) was 24. The Implants/dam (36p Tg mice; 200 mg/kg, Total of 2 dams) was 12.0, the Live fetuses/dam (36p Tg mice; 200 mg/kg, Total of 2 dams) was 3.0 and the “Malformations total (%)” value (36p Tg mice; 200 mg/kg, Total of 2 dams) was 16.7%. The “Malformations/Tg (%)” value (36p Tg mice; 200 mg/kg, Total of 2 dams) was 33.3%, the “Malformations/nTg (%)” value (36p Tg mice; 200 mg/kg, Total of 2 dams) was 0.0% and the “Resorptions (%)” value (36p Tg mice; 200 mg/kg, Total of 2 dams) was 70.8%. For the same molecule, the “Tg fetuses (%)” value (36p Tg mice; 200 mg/kg, Total of 2 dams) was 50.0%, the “Tg/Malformations (%)” value (36p Tg mice; 200 mg/kg, Total of 2 dams) was 100.0% and the “nTg fetuses (%)” value (36p Tg mice; 200 mg/kg, Total of 2 dams) was 50.0%. The “Details of Malformation” value (36p Tg mice; 200 mg/kg) was 200 mg/kg: umbilical hernia (1), the “Malformations total (%)” value (36p Tg mice; 200 mg/kg, single dam) was 16.7% and the “Malformations/Tg (%)” value (36p Tg mice; 200 mg/kg, single dam) was 33.3%. For the same molecule, the “Malformations/nTg (%)” value (36p Tg mice; 200 mg/kg, single dam) was 0.0%, the “Resorptions (%)” value (36p Tg mice; 200 mg/kg, single dam) was 100.0% and 56.3% and the “Tg fetuses (%)” value (36p Tg mice; 200 mg/kg, single dam) was 50.0%. The “Tg/Malformations (%)” value (36p Tg mice; 200 mg/kg, single dam) was 100.0%, the “nTg fetuses (%)” value (36p Tg mice; 200 mg/kg, single dam) was 50.0% and the “malformation of the fetus” value (rat) was “did not develop any malformation”. The “sensitivity of monkeys relative to that of rats” value (rats and Rhesus monkeys; teratogenic sensitivity, monkeys versus rats) was at least 10 times and the “sensitivity of rats compared with that of Rhesus monkeys” value (rats and Rhesus monkeys; teratogenic sensitivity) was “significantly lower”.

In the case of `CC(=O)Oc1ccccc1C(=O)O` [acetylsalicylic acid], the “effect on teratogenicity of thalidomide” value (rabbit) is listed as “suppresses the teratogenicity of thalidomide” and the “teratogenicity in rats as compared with Rhesus monkeys” value (rats and Rhesus monkeys) is listed as “teratogenicity was observed at a lower dose”.

In the case of `NC(=O)NO` [hydroxylurea], the “teratogenicity in rats as compared with Rhesus monkeys” value (rats and Rhesus monkeys) is given as “teratogenicity was observed at a lower dose”.

In the case of `CN(Cc1cnc2nc(N)nc(N)c2n1)c1ccc(C(=O)N[C@@H](CCC(=O)O)C(=O)O)cc1` [methotrexate], the “teratogenicity in rats as compared with Rhesus monkeys” value (rats and Rhesus monkeys) is listed as “teratogenicity was observed at a lower dose” and the “sensitivity of rats higher than that of monkeys” value (rats and Rhesus monkeys; teratogenic sensitivity, rats versus monkeys) is listed as 20 times.

For `CC1=C(/C=C/C(C)=C/C=C/C(C)=C/C(=O)O)C(C)(C)CCC1` [retinoic acid], the “teratogenicity in rats as compared with Rhesus monkeys” value (rats and Rhesus monkeys) is listed as “teratogenicity was observed at a lower dose”.

For `CC[C@]1(O)C[C@H]2CN(CCc3c([nH]c4ccccc34)[C@@](C(=O)OC)(c3cc4c(cc3OC)N(C=O)[C@H]3[C@@](O)(C(=O)OC)[C@H](OC(C)=O)[C@]5(CC)C=CCN6CC[C@]43[C@@H]65)C2)C1` [vincristine], the “teratogenicity in rats as compared with Rhesus monkeys” value (rats and Rhesus monkeys) is given as “teratogenicity was observed at a lower dose”.

For Aflatoxin B1, the “metabolic activation in mutagenicity test” value (Salmonella TA100) is given as “efficiently activated”.
